Entries after “also recorded” stand apart in the source; their conditions may differ.
Experiments:
[1] = Fluorescent intensity and quantum yield in solution; type: physicochemical; conditions: for relative fluorescent units: 1 μM solutions
Procedure: Absorption spectra were obtained using a Perkin-Elmer (Lambda 2) UV/VIS spectrophotometer. Fluorescence spectra were obtained by using either a Perkin-Elmer 650-10S fluorescent spectrophotometer or a SPEX Fluorolog 2. Proton NMR spectra were recorded with a Bruker 300 MHz pulsed fourier transform spectrometer. The chemical shifts were determined with respect to internal standards: tetramethylsilane or 4-trimethylsilylpropanesulfonic acid.

[2] = system: A-253 human head and neck squamous carcinoma cells; assay: MTT microculture growth inhibition assay, A-253 cells; type: cell-based; conditions: for IC50: cells exposed to drugs for 4 days, MTT, ± SEM of 16 or more determinations
Procedure: (§1) A-253 human head and neck squamous carcinoma cells were obtained from the American Type Culture Collection (Rockville, Md.) and were grown in McCoy's medium supplemented with 10% fetal bovine serum (Hyclone, Logan, Utah) as previously described. See, Lazo, J. S., et al., "Characteristics of Bleomycin-resistant Phenotypes of Human Cell Sublines and Circumvention of Bleomycin Resistance by Liblomycin," Cancer Res , 49: 185-190, (1989). The BLM-resistant (C-10E) cell line was derived from A-253 cells as previously described. Id., incorporated by reference herein, and was maintained in the continuous presence of 50 nM BLM. The revertant (C-10E^R) cells were obtained by growing C-10E cells in the absence of BLM for 3 months. Cell lines were maintained at 37° C. in a humidified incubator with 95% air, 5% CO2 atmosphere.
(§2) The effect of drugs on cellular proliferation was determined using the previously described MTT microculture assay. See, Twentyman, P. R., et al., "Study of Some Variables in a Tetrazolium Dye (MTT) Based Assay for Cell Growth and Chemosensitivity," Br. J Cancer, 56: 279-285, (1987). Exponentially growing cells were plated at a density of 2 to 4×10^3 cells per well in 100 μl volume into 96-well microtiter plates (Costar, Cambridge, Mass.). After 3 hours, various concentrations of drugs were added and the plates were incubated for 4 days at 37° C. under humidified 5% CO2 -95% air atmosphere. After 4 days, the medium was replaced with 100 μl of 1 mg/ml MTT in McCoy's medium, and cells were incubated with MTT solution in McCoy's medium for 3 hours at 37° C. Excess MTT was removed, the formazan generated was dissolved in 100 μl DMSO, and the absorbance at wavelength 540 nm was determined spectrophotometrically (Titertek Multiskan; Flow Labs, McLean, Va.). The drug concentrations required to inhibit cell growth by 50% (IC50) were then determined.

[3] = system: C-10E cells; assay: MTT microculture growth inhibition assay, BLM-resistant C-10E cells; type: cell-based, human; conditions: for IC50: cells exposed to drugs for 4 days, MTT, ± SEM; for resistance index C-10E: ratio of IC50 for C-10E cells compared to the IC50 for A-253 cells; for fold resistance of C-10E cells: C-10E clone relative to A-253 cells
Procedure: as §1, §2

[4] = system: form I plasmid pGEM-3Z DNA; assay: DNA cleavage assay, agarose gel electrophoresis and densitometry; type: biochemical; conditions: for form I DNA remaining after 1 minute incubation: equipotent concentrations: TLM S10b 0.05 μM, FLM 0.62 μM
Procedure: The ability of various drugs to cause breakage of covalently closed circular DNA was determined using a slight modification of a previously described DNA cleavage assay. See, Lazo, J. S., et al, "Enhanced Bleomycin-induced DNA Damage and Cytotoxicity with Calmodulin Antagonists," Molec. Pharmacol., 27: 387-393, (1985). Metal-free FLM was first made by chelating the metal with dithizone using a previously described procedure. See, Roy, S. R., et al., "Chemical Synthesis of Radiolabeled Bleomycin A2 and its Binding to DNA," Cancer Res., 41: 4471-4477, (1981), incorporated by reference herein. […] The disappearance of form I DNA and the appearance of form II and form III DNA were assayed by gel electrophoresis with 1.2% agarose gels at room temperature for 15 h at 30 V in a buffer containing 40 mM Tris-acetate and 1 mM EDTA. The gel was then stained with 1 μg/ml ethidium bromide for 1 hour and the DNA visualized by UV irradiation. A negative film of the gel was recorded and scanned using an LKB 2400 GelScan XL densitometer. The effect of incubation time on cleavage of pGEM-3Z DNA by TLM S10b and FLM was also determined using equipotent amounts of TLM S10b and FLM (0.05 and 0.62 μM, respectively) by gel electrophoresis as described above.
Equipotent concentrations of TLM S10b and FLM (0.05 and 0.62 μM, respectively) were incubated with form I DNA for 1, 5, 10, 20 and 30 minutes and the percent form I DNA remaining was calculated from densitometric scanning of the band corresponding to form I. Following incubation with FLM for 1 minute, only 6.5% form I DNA remained undegraded (lane 8). In contrast, 74% form I DNA remained intact following incubation with TLM S10b for 1 minute (lane 3) and 10 minutes incubation was required to cleave 95% of form I (lane 5).

[5] = system: C-10E^R cells; assay: MTT microculture growth inhibition assay, revertant C-10E^R cells; type: cell-based, human; conditions: for resistance index C-10E ®: ratio of IC50 for C-10E ® cells compared to the IC50 for A-253 cells; for IC50: revertant cells, exposed to drugs for 4 days, MTT, ± SEM
Procedure: as §1, §2

[6] = system: C-10E^R cells; assay: Cell-associated drug by fluorescent spectrophotometry, C-10E^R cells; type: cell-based, human; conditions: 100 μM FLM, 1 hour, 37° C., fluorometry
Procedure: (§5) Exponentially growing A-253, C-10E or C-10E^R cells were harvested and approximately 1.5×10^6 cells were incubated in 200 µl medium at 37° C. for 60 minutes in the presence or absence of 100 μM FLM. Drug incubation was terminated by washing the cells with 3×1 ml of ice-cold PBS, resuspending the cells in 1 ml of 50 mM bicarbonate buffer (pH=9.0) and lysing by sonication (4×5 sec). The cell lysate was centrifuged at 12,000 rpm (Eppendorf Microcentrifuge 5415 C) to remove cellular debris, and the supernatant was filtered through 0.2 μm SPIN-X centrifuge filter unit (Costar, Cambridge, Mass.). The cell-associated fluorescent was measured using a fluorescent spectrophotometer. Autofluorescent associated with cells in the absence of drug treatment was measured and subtracted from the fluorescent value of the drug-treated group.
(§6) To quantify the levels of cell-associated FLM in A253, C-1OE and C-10E^R cell lines, cells were incubated with 100 μM FLM for 1 hour at 37° C. and the cellular fluorescent of the three cell lines were measured by fluorometry.

[7] = system: C-10E^R cells; assay: Flow cytometric analysis of cellular FLM content, C-10E^R cells; type: cell-based, human
Procedure: (§3) For each analysis, a "control" was included in which each cell line was incubated under identical conditions in the absence of FLM. […] Cells were then suspended in 100 μl PBS, fixed with 2% paraformaldehyde in 100 μl PBS and analyzed by flow cytometry using a Becton-Dickinson FAC Star. Analysis was done using a 2 W laser tuned in at 488 nm at an output strength of 200 mW. The band pass filter range =530/30. The total number of cells analyzed was 5,000.
(§4) The cell diameter as measured by Coulter counter was similar for all the three cell lines ([…]).

[8] = system: A-253 cells; assay: Flow cytometric analysis of cellular FLM content, A-253 cells; type: cell-based, human; conditions: 100 μM FLM, 60 minutes, 37° C.
Procedure: as §3, §4

[9] = system: A-253 cells; assay: Cell-associated drug by fluorescent spectrophotometry, A-253 cells; conditions: 1 hour, 37° C.
Procedure: as §5, §6

[10] = system: C-10E cells; assay: Flow cytometric analysis of cellular FLM content, C-10E cells; type: cell-based, human
Procedure: as §3, §4

[11] = system: C-10E cells; assay: Cell-associated drug by fluorescent spectrophotometry, C-10E cells; type: cell-based, human
Procedure: as §5, §6

[12] = A-253 cells, continuous exposure

Cc1c(N)nc([C@H](CC(N)=O)NC[C@H](N)C(N)=O)nc1C(=O)N[C@H](C(=O)N[C@H](C)[C@@H](O)[C@H](C)C(=O)N[C@H](C(=O)NCCc1nc(-c2nc(C(=O)NCCCN(C)CCCN(Cc3ccc(OCc4ccccc4)c(OCc4ccccc4)c3)Cc3ccc(OCc4ccccc4)c(OCc4ccccc4)c3)cs2)cs1)[C@@H](C)O)[C@@H](O[C@@H]1O[C@@H](CO)[C@@H](O)[C@H](O)[C@@H]1O[C@H]1O[C@H](CO)[C@@H](O)[C@H](OC(N)=O)[C@@H]1O)c1cnc[nH]1 [LBM, liblomycin, reference compound]
relative fluorescent units [1]: 2.1 relative fluorescent units
IC50 [2]: 500 ± 20 nM
IC50 [3]: 570 ± 20 nM
resistance index C-10E [3]: 1.1

Cc1c(N)nc([C@H](CC(N)=O)NC[C@H](N)C(N)=O)nc1C(=O)N[C@H](C(=O)N[C@H](C)[C@@H](O)CC(=O)N[C@H](C(=O)NC(O[C@@H]1O[C@@H](C)[C@@H](N)[C@@H](O)[C@H]1O)C(O)c1nc(-c2nc(C(=O)NCCCCN)cs2)cs1)[C@@H](C)O)[C@@H](O[C@@H]1O[C@@H](CO)[C@@H](O)[C@H](O)[C@@H]1O[C@H]1O[C@H](CO)[C@@H](O)[C@H](OC(N)=O)[C@@H]1O)c1cnc[nH]1 (stereo partly drawn) [TLM S10b, talisomycin S10b, reference compound]
relative fluorescent units [1]: 2.6 relative fluorescent units
form I DNA remaining undegraded ([4]; 0.05 μM drug, 20 minutes, stoichiometric Fe(II)): 21.1%
incubation required to cleave 95% of form I DNA ([4]; TLM S10b 0.05 μM): 10 min
form I DNA remaining after 1 minute incubation [4]: 74%
IC50 [2]: 50 ± 2.3 nM
fold resistance of C-10E cells [3]: 40- to 50 fold
IC50 [3]: 2700 ± 23 nM
resistance index C-10E [3]: 54
resistance index C-10E ® [5]: 8
IC50 [5]: 0.41 ± 0.009 µM

fluoromycin [FLM]
cell-associated FLM [6]: 167 pmol/10^6 cells
mean fluorescent channel number (mean FL1) ([7]; C-10E^R cells, 100 μM FLM, 60 minutes, 37° C.): 122
fold lower fluorescent intensity, C-10E^R compared to A-253 cells ([7]; flow cytometry of FLM content): 2 fold
mean fluorescent channel number (mean FL1) [8]: 250
fold difference in drug accumulation, FLM vs BLM A2 ([9]; 50 μM): ~2 fold
cell-associated FLM ([9]; 100 μM FLM, fluorometry): 246 pmol/106 cells
cell-associated drug, comparison of BLM A2 and FLM ([9]; 100 μM drug): 255 pmol/10^6 cells
cell-associated FLM fold higher than for BLM A2 ([9]; 100 μM): approximately 2.5 fold
relative fluorescent units [1]: 836 relative fluorescent units
fluorescent quantum yield ([1]; 50 mM bicarbonate buffer (pH=9.0), excited at 497 nm, emission maximum 523 nm): 0.71
fluorescent intensity times greater than that of BLM A2, TLM S10b and LBM ([1]; equimolar solutions): 300 to 400 times
form I DNA remaining after 1 minute incubation [4]: 6.5%
rate of DNA cleavage relative to TLM S10b ([4]; equipotent doses compared directly): approximately 10 times
times less potent than TLM S10b in DNA cleavage ([4]; metal-free FLM, stoichiometric Fe(II), 20 minutes): 12 times
cleavage of plasmid DNA in vitro ([4]; result in words): able to cleave form I DNA; also recorded: cleaves pGEM-3Z plasmid DNA in vitro in a concentration-dependent manner
mean fluorescent channel number (mean FL1) ([10]; C-10E cells, 100 μM FLM, 60 minutes, 37° C.): 61
fold difference in fluorescent intensity, C-10E lower than A-253 cells ([10]; flow cytometry of FLM content): 4 fold
times less potent than BLM A2 (antiproliferative potency) [2, 12]: 33 times
times less potent than TLM S10b (antiproliferative potency) [2, 12]: 25 times
IC50 [2]: 1250 ± 80 nM
IC50 value times higher than TLM S10b or BLM A2 ([2]; growth inhibition assay): 25-30 times
fold resistance of C-10E cells [3]: 50 fold
IC50 [3]: 66000 ± 1700 nM
resistance index C-10E [3]: 53
resistance index C-10E ® [5]: 18
IC50 [5]: 22 ± 1.1 µM
cell-associated FLM ([11]; C-10E cells, 100 μM FLM, 1 hour, 37° C., fluorometry): 123 pmol/10^6 cells
fold difference in cell-associated FLM, C-10E lower than A-253 cells ([11]; fluorescent spectrophotometry): 2 fold
